Measurements taken from paper PMC8997399, “High-Throughput Screening to Identify Inhibitors of Plasmodium falciparum Importin α” (Cells, 2022).
Several values for one entry are separate records, joined by “and”; a condition that tells them apart may be missing. Identical values can stand only once. Like-named read-outs stand apart in the source and are kept apart here.

Tests used:
MmΔIBBIMPα = biological target: T1, MmΔIBBIMPα (Mus musculus, UniProt P52293); experiment: AlphaScreen binding assay, MmΔIBBIMPα:T-ag-NLS-GFP interaction
T1 construct: made in house
Procedure: PfIMPα, TgIMPα, Mus musculus IMPα (MmIMPα), ΔIBBMmIMPα, and β1 (MmIMPβ) GST fusion proteins were expressed and purified essentially as previously. His-tagged TGS1-NLS-GFP, PfIMPα and TgIMPα proteins were purified using Ni^2+-affinity chromatography as described. His-tagged SV40 T-ag-NLS-GFP was purified as previously. Biotinylation of GST-tagged proteins was carried out using the Sulfo-NHS-Biotin reagent (Pierce, Rockford, IL, USA) as described previously. AlphaScreen binding assay was performed as described previously.
Plates were read for an Alphascreen signal on an Envision plate reader (PerkinElmer, Waltham, MA, USA), with signals from the negative control wells (no bait control) on each plate subtracted.

P. falciparum 3D7 strain = experiment: P. falciparum growth inhibition assay (HRP2 sandwich ELISA); format: cell-based, Plasmodium falciparum
Procedure: Red blood cells (RBCs) were derived from blood from volunteers (approval from the Institute Ethics Committee, IIT Bombay, Mumbai, India) by density gradient centrifugation. Aliquots of cryopreserved P. falciparum 3D7 strain in human red blood cells (RBCs—3% hematocrit, <5% parasitemia) were thawed and cultured using RPMI (Roswell Park Memorial Institute) 1640 medium supplemented with 0.5% Albumax (Gibco^TM, Waltham, MA, USA), 50 mg/L hypoxanthine (Sigma-Aldrich, St Louis, MO, USA), 2 g/L D-glucose (Sigma-Aldrich, St Louis, MO, USA), 2 g/L sodium bicarbonate (Sigma-Aldrich, St Louis, MO, USA), and 56 mg/L of gentamicin (Abbott, Chicago, IL, USA) at 37 °C in 5% CO2 in a humidified incubator according to the standard procedures; suspension cultures were maintained at 3% hematocrit and <5% parasitemia, by adding a fresh medium daily and a regular addition of fresh human RBCs.
Before growth inhibition assays, cultures were synchronized using 5% D-sorbitol (Sigma-Aldrich, St Louis, MO, USA) predominantly to obtain the ring stage of the P. falciparum life cycle.
Growth assays in the absence and presence of inhibitors were performed using the Histidine–Rich Protein 2 (HRP2) sandwich horseradish peroxidase-linked immunosorbent assay to measure HRP2 protein levels as an indicator of growth. Briefly, 25 µL of compound was added to 96-well microculture plates (Eppendorf, Hamburg, Germany) of 0.25% (with fresh RBCs), and added at a hematocrit of 3%. The plates were then incubated for 72 h at 37 °C in a humidified incubator, sparged with 5% CO2. 72 h later, the plates were subjected to freeze–thaw to achieve hemolysis, and samples diluted 200-fold in H2O in transferring to another plate. A day prior to analysis, 96-well ELISA plates (Sigma-Aldrich, St Louis, MO, USA) were coated overnight at 4 °C with 100 µL of 1 μg/mL IgM capture antibody MPFM-55A (Immunology Consultants Laboratory, Portland, OR, USA) specific for P. falciparum HRP2. After blocking for 2 h at room temperature with 2% BSA in PBS, diluted samples were added to the wells, followed by incubation for 2 h, then the plates were washed three times with 0.05% Tween 20 in PBS. Next, 100 µL of the secondary antibody MPFG-55P (Immunology Consultants Laboratory, Portland, OR, USA) conjugated with horseradish peroxidase (0.25 μg/mL in PBS with 2% BSA) was then added to each well, and the plates incubated for 1 h at room temperature, prior to being washed three times, and 100 µL 3,3′, 5,5′ tetramethylbenzidine substrate (BD Biosciences, San Jose, CA, USA) being added. After 10 min incubation in the dark, 50 µL of 1 M H2SO4 was added and the absorbance was read at 450 nm on a Multiscan™ FC Microplate Spectrophotometer (Thermo Fisher Scientific, Waltham, MA, USA).

[1] = test system: T. gondii RH strain expressing the luciferase reporter (RH-Fluc); experiment: T. gondii tachyzoite growth inhibition assay (RH-Fluc luciferase); format: cell-based, Toxoplasma gondii; conditions: for T. gondii parasite killing: at 2 µM or less (Figure 7); for IC50: read-out: IC50 T. gondii
Description: T. gondii RH strain expressing the luciferase reporter (RH-Fluc) was derived to assess the effect of the inhibitors on growth. Briefly, plasmid pCTG-EGFP [42] was modified by replacing the coding sequence of EGFP with that of the firefly luciferase reporter, using restriction enzymes BglII and PstI (Thermo Fisher Scientific, Waltham, MA, USA). The resultant plasmid, pCTG-Fluc, expressing firefly luciferase constitutively under the control of the T. gondii TubulinA promoter, was electroporated into the T. gondii RH strain [43, 44] using a Bio-Rad GenePulser Xcell system (1500 V, 50 Ω and 25 µF) along with restriction enzyme NotI to initiate RE-Mediated Integration (REMI) of the linearized plasmid into the genome. The resultant stable T. gondii line expressing the luciferase reporter was selected for resistance to 20 µM chloramphenicol (encoded by the plasmid pCTG), and dilution cloning was performed to ultimately identify the clone (RH-Fluc) with the highest luciferase activity (c. 4 × 10^7 RLU from 10^7 parasites) used for growth assays. T. gondii tachyzoites were maintained and cultured at 37 °C in 5% CO2 in a humidified incubator in primary human foreskin fibroblasts (HFF, ATCC); HFF cells were maintained in Dulbecco’s modified Eagle medium (DMEM) (Gibco^TM, Waltham, MA, USA) supplemented with 3.7 g/L sodium bicarbonate and 2.38 g/L HEPES, 10% Cosmic Calf serum (Hyclone^TM, Logan, UT, USA) and 20 mg/L gentamicin [47, 48].
Growth inhibition was assessed by luminescence measurements as described. Briefly, 100 μL of culture medium with or without inhibitors was added to confluent monolayers of HFF cells grown in 96-well treated culture plates (Eppendorf, Hamburg, Germany), followed by 100 µL of DMEM containing 5000 parasites. After 48 h, 150 µL of the culture media was discarded from each well without aspirating any parasites, and 10 µL lysis buffer was added to lyse the parasites, followed by 50 μL of 2× luciferase assay reagent (Promega, Madison, WI, USA). Luminescence was measured directly for 10 s using a Varioskan™ LUX multimode microplate reader (Thermo Fisher Scientific, Waltham, MA, USA).

[2] = compounds at 10 μM, ΔIBBMmIMPα (5 nM):T-ag-NLS-GFP (30 nM), relative to 1% DMSO control
[3] = pooled, mean ± SEM (n = 3), read-out: IC50 MmΔIBBIMPα:T-ag-NLS
[4] = single experiment (Figure 3), IMPα 5 nM, NLS 30 nM, read-out: IC50 MmΔIBBIMPα:T-ag-NLS-GFP
[5] = 10 µM, 72 h, 0.25% parasitemia (Figure 5A)
[6] = 10 μM, 48 h, HFF cells infected with RH-Fluc (Figure 5B)
[7] = parasites in culture, 48 h, pooled, mean ± SD (n = 3) (Table 3)
[8] = single typical experiment (Figure 7), 48 h

Compound | % Inhibition of IMPα-NLS Interaction MmΔIBBIMPα (MmΔIBBIMPα; [2]) | IC50 (MmΔIBBIMPα; [3]) | fold higher IC50 for ΔIBBMmIMPα-NLS compared to PfIMPα-TGS-NLS interaction (MmΔIBBIMPα; selectivity for PfIMPα) | IC50 (MmΔIBBIMPα; [4]) | inhibition of P. falciparum growth (HRP2 levels) (P. falciparum 3D7 strain; [5]) | IC50 (P. falciparum 3D7 strain; parasites in culture, 72 h, pooled, mean ± SD (n = 3)) | reduction in luciferase activity, indicative of T. gondii growth inhibition [1, 6] | T. gondii parasite killing [1] | IC50 [1, 7] | IC50 [1, 8] | inhibition at 10 µM (MmΔIBBIMPα; compounds at 10 μM, ΔIBBMmIMPα (5 nM):T-ag-NLS-GFP (30 nM), relative to 1% DMSO control, read-out: % Inhibition of IMPα-NLS Interaction MmΔIBBIMPα) | IC50 (P. falciparum 3D7 strain; Plasmodium falciparum, 3D7, 72 h, parasites in culture, pooled, mean ± SD (n = 3)) | IC50 (P. falciparum 3D7 strain; Plasmodium falciparum, 3D7, 72 h, single typical experiment (Figure 6)) | inhibition at 10 µM (P. falciparum 3D7 strain; Plasmodium falciparum, 3D7, 10 µM, 72 h, 0.25% parasitemia (Figure 5A), read-out: inhibition of P. falciparum growth (HRP2 levels)) | inhibition at 10 µM ([1]; Toxoplasma gondii, 10 μM, 48 h, HFF cells infected with RH-Fluc (Figure 5B), read-out: reduction in luciferase activity, indicative of T. gondii growth inhibition) | IC50 ([1]; Toxoplasma gondii, parasites in culture, 48 h, pooled, mean ± SD (n = 3) (Table 3))
CC(C)(C)c1ccc(S(=O)(=O)/C=C/C#N)cc1 [Bay 11-7085] | 9% | 23000 nM and 23400 nM | ~12 fold | 31000 nM | ~20% | > 10000 nM | > 50% | ≥ 60% | 2700 ± 700 nM | 2000 nM |  |  |  |  |  | 
O=C(/C=C/c1ccc(O)c(O)c1)OCCc1ccccc1 [CAPE, Caffeic acid phenethyl ester] |  | 700 ± 100 nM |  |  |  |  |  |  |  |  | 92% | 7500 ± 1100 nM | 6500 nM | > 50% | 5% | > 10000 nM
CC(=O)OC[C@H]1O[C@@H]([S-])[C@H](OC(C)=O)[C@@H](OC(C)=O)[C@@H]1OC(C)=O.CCP(CC)CC.[Au+] [auranofin] | 91% | 60 ± 10 nM |  | 50 nM | > 50% |  | > 50% | ≥ 60% | 2300 ± 800 nM | 1900 nM |  |  |  |  |  | 
